Results on two compounds are retold here after patent US20250161294A1, “COMPOSITIONS AND METHODS FOR TREATMENT OF OCULAR DISORDERS” (Bausch + Lomb Ireland Limited, priority 2023, published 2025).

Structures are written as SMILES.

A short description of data set [1]: Solubility of lifitegrast free acid in F6H8. The class given is physicochemical. The settings on record: lifitegrast free acid added to F6H8 at 0.25% to 10% (w/w); forms a suspension. The text has this:
The lifitegrast is in soluble in F6H8 and forms a suspension. When left standing the lifitegrast settles to form a sediment.

For data set [2], the system named is S. aureus. The data set can be described thus: Antimicrobial properties of F6H8, Ph. Eur. 5.1.3 method. The settings on record: for Count: inoculum 2 × 10^5. The class given is cell-based.
Data set [3] relates to A. brasiliensis. The data set is described as above. The class given is cell-based. The settings on record: for Count: inoculum 7 × 10^5. As for the experimental part:
(§1) The antimicrobial properties of F6H8 were evaluated according to the Ph. Eur. 5.1.3 method.

Data set [4] relates to C. albicans. Described as above. The class given is cell-based. The settings on record: for Count: inoculum 9 × 10^5. As for the experimental part:
as §1

The test system of data set [5] is E. coli. The data set is described as above. The class given is cell-based. The settings on record: for Count: inoculum 2 × 10^5. As for the experimental part: as §1
The test system of data set [6] is P. aeruginosa. The description is as above. The class given is cell-based. Conditions: for Count: inoculum 8 × 10^5. As for the experimental part: as §1
For data set [7], the system named is viable bacteria; yeasts and molds. The data set can be described thus: Antimicrobial effectiveness acceptance criteria, Ph. Eur. 5.1.3 (overall). The class given is cell-based. The settings on record: bacteria: >=2 log reduction at 6 hours, >=3 log at 24 hours, no recovery at 28 days; yeasts and molds: >=2 log at 7 days, no increase at 28 days; no extrinsic preservative. As for the experimental part:
as §1

In the case of `CS(=O)(=O)c1cccc(C[C@H](NC(=O)c2c(Cl)cc3c(c2Cl)CCN(C(=O)c2ccc4ccoc4c2)C3)C(=O)O)c1` [lifitegrast], the “Solubility in F6H8” value in data set [1] is listed as “in soluble”.

Turning to `CCCCCCCCC(F)(F)C(F)(F)C(F)(F)C(F)(F)C(F)(F)C(F)(F)F` [F6H8, 1-perfluorohexyloctane], the Log reduction in data set [2] (0 hour) turned out to be 4.1; in data set [2] (6 hours), 5.3; in data set [2] (24 hours) it was 5.3; in data set [2] (28 days), 5.3; in data set [3] (0 hour) it was 0.9; in data set [3] (7 days), 2.8. The Log reduction in data set [3] (28 days) stood at 2.5; in data set [4] (0 hour), 2.3; in data set [4] (7 days), 6.0; in data set [4] (28 days), 6.0; in data set [5] (0 hour), 1.0; in data set [5] (6 hours), 5.3. Also, the Log reduction in data set [5] (24 hours) was determined as 5.3; in data set [5] (28 days) it was 5.3; in data set [6] (0 hour), 1.2; in data set [6] (6 hours), 3.3; in data set [6] (24 hours), 5.0; in data set [6] (28 days) it was 5.9. Besides, the Count is recorded as 0 in data set [2] (6 hours); 0 in data set [2] (24 hours); 0 in data set [2] (28 days); 8 × 10^4 in data set [3] (0 hour); 1 × 10^3 in data set [3] (7 days); 2 × 10^3 in data set [3] (28 days). Moreover, the Count in data set [4] (0 hour) was 5 × 10^3; in data set [4] (7 days), 0; in data set [4] (28 days), 0; in data set [5] (0 hour) it was 2 × 10^4; in data set [5] (6 hours), 0; in data set [5] (24 hours), 0. For the same compound, the Count in data set [5] (28 days) was 0; in data set [6] (0 hour), 5 × 10^4; in data set [6] (6 hours), 4 × 10^2; in data set [6] (24 hours) it was 8; in data set [6] (28 days), 0. Besides, the “Acceptance criteria of the antimicrobial effectiveness assay” value in data set [7] is “meets the acceptance criteria”.
